Measured values taken from patent US10844077B2, “Thiazolyl-containing compounds for treating proliferative diseases” (Dana-Farber Cancer Institute, Inc., priority 2014, dated 2020).
Read-outs that look alike come from different tables or passages of the source.

Key:
Type in all cases: binding
broad panel of kinases [1] = molecular target: broad panel of kinases (Homo sapiens, UniProt Q06418); settings: TYRO3; 1 μM
broad panel of kinases [2] = molecular target: broad panel of kinases (Homo sapiens, UniProt Q8N5S9); settings: CAMKK1; 1 μM
broad panel of kinases [3] = molecular target: broad panel of kinases (Homo sapiens, UniProt P00519, H396P); settings: 1 μM
broad panel of kinases [4] = molecular target: broad panel of kinases (Homo sapiens, UniProt Q96RR4); settings: CAMKK2; 1 μM
broad panel of kinases [5] = molecular target: broad panel of kinases (Homo sapiens, UniProt O94768); settings: DRAK2; 1 μM
broad panel of kinases [6] = molecular target: broad panel of kinases (Homo sapiens, UniProt P00519, T315I); settings: 1 μM
broad panel of kinases [7] = molecular target: broad panel of kinases (Homo sapiens, UniProt Q15418); settings: 1 μM
broad panel of kinases [8] = molecular target: broad panel of kinases (Homo sapiens, UniProt O14733); settings: MKK7; 1 μM
broad panel of kinases [9] = molecular target: broad panel of kinases (Homo sapiens, UniProt Q9H2X6); settings: HIPK2; 1 μM
broad panel of kinases [10] = molecular target: broad panel of kinases (Homo sapiens, UniProt P51957); settings: NEK4; 1 μM
broad panel of kinases [11] = molecular target: broad panel of kinases (Homo sapiens, UniProt Q8IY84); settings: NIM1; 1 μM
broad panel of kinases [12] = molecular target: broad panel of kinases (Homo sapiens, UniProt P00519); settings: 1 μM
broad panel of kinases [13] = molecular target: broad panel of kinases (Homo sapiens, UniProt Q16620); settings: TRKB; 1 μM
broad panel of kinases [14] = molecular target: broad panel of kinases (Homo sapiens, UniProt P20794); settings: MAK; 1 μM
broad panel of kinases [15] = molecular target: broad panel of kinases (Homo sapiens, UniProt Q13523); settings: PRP4; 1 μM
broad panel of kinases [16] = molecular target: broad panel of kinases (Homo sapiens, UniProt Q9Y243); settings: AKT3; 1 μM
broad panel of kinases [17] = molecular target: broad panel of kinases (Homo sapiens, UniProt Q9NWZ3); settings: IRAK4; 1 μM
broad panel of kinases [18] = molecular target: broad panel of kinases (Homo sapiens, UniProt P42336, I800L); settings: PIK3CA(I800L); 1 μM
broad panel of kinases [19] = molecular target: broad panel of kinases (Homo sapiens, UniProt Q96Q40)
broad panel of kinases [20] = molecular target: broad panel of kinases (Homo sapiens, UniProt Q99640); settings: PKMYT1; 1 μM
broad panel of kinases [21] = molecular target: broad panel of kinases (Homo sapiens, UniProt P07948); settings: LYN; 1 μM
broad panel of kinases [22] = molecular target: broad panel of kinases (Homo sapiens, UniProt P52333); settings: JAK3(JH1domain-catalytic); 1 μM
broad panel of kinases [23] = molecular target: broad panel of kinases (Homo sapiens, UniProt O95835); settings: LATS1; 1 μM
broad panel of kinases [24] = molecular target: broad panel of kinases (Homo sapiens, UniProt Q5S007); settings: LRRK2; 1 μM
broad panel of kinases [25] = molecular target: broad panel of kinases (Homo sapiens, UniProt P36888, K663Q); settings: FLT3(K663Q); 1 μM
broad panel of kinases [26] = molecular target: broad panel of kinases (Homo sapiens, UniProt P00519, Y253F); settings: ABL1(Y253F)-phosphorylated; 1 μM
broad panel of kinases [27] = molecular target: broad panel of kinases (Homo sapiens, UniProt P49841); settings: GSK3B; 1 μM
broad panel of kinases [28] = molecular target: broad panel of kinases (Homo sapiens, UniProt O75116); settings: ROCK2; 1 μM
broad panel of kinases [29] = molecular target: broad panel of kinases (Homo sapiens, UniProt Q9H3Y6); settings: SRMS; 1 μM
broad panel of kinases [30] = molecular target: broad panel of kinases (Homo sapiens, UniProt P08581, Y1235D); settings: MET(Y1235D); 1 μM
broad panel of kinases [31] = molecular target: broad panel of kinases (Homo sapiens, UniProt Q9BQI3); settings: EIF2AK1; 1 μM
broad panel of kinases [32] = molecular target: broad panel of kinases (Homo sapiens, UniProt Q9UPE1); settings: SRPK3; 1 μM
broad panel of kinases [33] = molecular target: broad panel of kinases (Homo sapiens, UniProt Q02779); settings: MLK2; 1 μM
broad panel of kinases [34] = molecular target: broad panel of kinases (Homo sapiens, UniProt O15075); settings: DCAMKL1; 1 μM
broad panel of kinases [35] = molecular target: broad panel of kinases (Homo sapiens, UniProt Q02750); settings: MEK1; 1 μM
broad panel of kinases [36] = molecular target: broad panel of kinases (Homo sapiens, UniProt O14976); settings: GAK; 1 μM

Chain of broad panel of kinases (Homo sapiens, UniProt Q13523) (Q13523 2-1007 limits assumed): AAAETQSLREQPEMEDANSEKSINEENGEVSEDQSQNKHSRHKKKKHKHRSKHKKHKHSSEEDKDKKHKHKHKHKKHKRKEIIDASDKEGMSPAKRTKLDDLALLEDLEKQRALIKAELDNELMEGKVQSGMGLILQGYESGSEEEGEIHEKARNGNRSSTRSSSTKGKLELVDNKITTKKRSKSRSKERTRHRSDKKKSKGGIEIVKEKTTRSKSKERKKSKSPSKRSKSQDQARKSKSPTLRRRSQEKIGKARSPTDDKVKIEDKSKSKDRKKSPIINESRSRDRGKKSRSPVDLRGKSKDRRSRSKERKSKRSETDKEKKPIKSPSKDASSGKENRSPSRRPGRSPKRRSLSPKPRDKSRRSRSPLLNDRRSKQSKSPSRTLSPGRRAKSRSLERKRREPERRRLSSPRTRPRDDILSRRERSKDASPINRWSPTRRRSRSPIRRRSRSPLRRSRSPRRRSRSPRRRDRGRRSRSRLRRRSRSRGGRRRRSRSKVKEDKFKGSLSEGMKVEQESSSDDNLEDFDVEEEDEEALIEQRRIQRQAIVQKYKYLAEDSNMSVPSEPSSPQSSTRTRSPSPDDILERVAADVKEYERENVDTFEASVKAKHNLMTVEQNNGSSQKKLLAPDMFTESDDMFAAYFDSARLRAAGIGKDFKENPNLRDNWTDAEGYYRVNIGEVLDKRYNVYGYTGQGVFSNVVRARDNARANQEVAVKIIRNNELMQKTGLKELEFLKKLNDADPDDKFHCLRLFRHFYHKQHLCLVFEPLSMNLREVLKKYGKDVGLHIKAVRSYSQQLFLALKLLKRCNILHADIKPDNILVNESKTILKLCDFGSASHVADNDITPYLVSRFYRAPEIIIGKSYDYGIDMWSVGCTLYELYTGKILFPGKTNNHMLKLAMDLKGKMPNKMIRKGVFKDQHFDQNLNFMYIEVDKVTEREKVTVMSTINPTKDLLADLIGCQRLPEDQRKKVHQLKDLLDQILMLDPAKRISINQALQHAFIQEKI
Chain of broad panel of kinases (Homo sapiens, UniProt P07948) (P07948 2-512 limits assumed): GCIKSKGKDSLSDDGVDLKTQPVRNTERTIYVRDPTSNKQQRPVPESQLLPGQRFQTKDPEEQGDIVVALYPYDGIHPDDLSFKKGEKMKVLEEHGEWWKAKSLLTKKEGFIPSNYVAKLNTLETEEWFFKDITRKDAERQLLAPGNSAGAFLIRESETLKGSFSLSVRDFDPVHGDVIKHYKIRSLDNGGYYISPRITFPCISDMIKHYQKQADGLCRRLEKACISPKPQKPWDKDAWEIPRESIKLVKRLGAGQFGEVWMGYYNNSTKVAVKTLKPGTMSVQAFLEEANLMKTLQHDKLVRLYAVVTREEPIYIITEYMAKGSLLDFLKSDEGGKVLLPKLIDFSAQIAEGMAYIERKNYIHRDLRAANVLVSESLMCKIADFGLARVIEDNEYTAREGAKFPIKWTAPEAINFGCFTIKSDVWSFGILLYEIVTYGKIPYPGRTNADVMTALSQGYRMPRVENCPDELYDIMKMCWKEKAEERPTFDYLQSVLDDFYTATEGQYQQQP
Chain of broad panel of kinases (Homo sapiens, UniProt P08581, Y1235D) (P08581 25-1390 Y1235D limits assumed): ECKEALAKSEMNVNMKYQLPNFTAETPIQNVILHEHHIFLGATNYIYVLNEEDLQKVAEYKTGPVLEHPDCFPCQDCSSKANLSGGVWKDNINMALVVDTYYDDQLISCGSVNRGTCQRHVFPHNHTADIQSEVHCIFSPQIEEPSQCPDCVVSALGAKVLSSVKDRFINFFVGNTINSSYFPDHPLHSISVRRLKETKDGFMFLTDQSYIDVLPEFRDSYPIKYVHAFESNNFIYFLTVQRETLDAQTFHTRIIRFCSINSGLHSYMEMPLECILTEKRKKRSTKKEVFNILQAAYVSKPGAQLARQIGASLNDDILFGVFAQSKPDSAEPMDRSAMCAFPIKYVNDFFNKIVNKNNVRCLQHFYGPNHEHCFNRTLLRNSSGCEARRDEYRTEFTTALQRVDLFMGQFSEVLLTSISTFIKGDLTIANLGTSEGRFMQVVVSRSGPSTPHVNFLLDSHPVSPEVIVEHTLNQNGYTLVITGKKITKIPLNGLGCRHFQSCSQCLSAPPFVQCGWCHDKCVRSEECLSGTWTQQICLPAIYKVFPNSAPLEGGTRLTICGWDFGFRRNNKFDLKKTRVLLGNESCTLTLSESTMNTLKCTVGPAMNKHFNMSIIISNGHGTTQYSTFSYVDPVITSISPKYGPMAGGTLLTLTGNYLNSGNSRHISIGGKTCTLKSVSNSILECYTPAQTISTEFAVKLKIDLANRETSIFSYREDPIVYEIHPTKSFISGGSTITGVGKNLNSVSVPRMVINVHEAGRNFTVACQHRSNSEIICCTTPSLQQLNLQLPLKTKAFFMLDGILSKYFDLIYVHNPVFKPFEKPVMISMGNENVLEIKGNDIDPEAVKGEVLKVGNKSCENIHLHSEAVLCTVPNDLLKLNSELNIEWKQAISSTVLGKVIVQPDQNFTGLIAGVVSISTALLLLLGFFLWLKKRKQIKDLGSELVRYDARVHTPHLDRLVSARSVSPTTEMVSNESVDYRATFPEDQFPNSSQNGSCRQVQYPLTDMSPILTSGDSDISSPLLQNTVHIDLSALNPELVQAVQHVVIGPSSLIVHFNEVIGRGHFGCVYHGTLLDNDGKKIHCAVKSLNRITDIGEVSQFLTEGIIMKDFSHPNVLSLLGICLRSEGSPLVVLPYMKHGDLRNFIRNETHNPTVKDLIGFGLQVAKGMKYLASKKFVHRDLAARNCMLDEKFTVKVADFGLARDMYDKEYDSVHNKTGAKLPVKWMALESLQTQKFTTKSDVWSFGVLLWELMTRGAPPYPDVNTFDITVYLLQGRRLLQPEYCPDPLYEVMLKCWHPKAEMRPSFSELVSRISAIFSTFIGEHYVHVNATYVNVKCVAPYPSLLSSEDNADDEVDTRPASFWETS
Chain of broad panel of kinases (Homo sapiens, UniProt Q06418) (Q06418 41-890 limits assumed): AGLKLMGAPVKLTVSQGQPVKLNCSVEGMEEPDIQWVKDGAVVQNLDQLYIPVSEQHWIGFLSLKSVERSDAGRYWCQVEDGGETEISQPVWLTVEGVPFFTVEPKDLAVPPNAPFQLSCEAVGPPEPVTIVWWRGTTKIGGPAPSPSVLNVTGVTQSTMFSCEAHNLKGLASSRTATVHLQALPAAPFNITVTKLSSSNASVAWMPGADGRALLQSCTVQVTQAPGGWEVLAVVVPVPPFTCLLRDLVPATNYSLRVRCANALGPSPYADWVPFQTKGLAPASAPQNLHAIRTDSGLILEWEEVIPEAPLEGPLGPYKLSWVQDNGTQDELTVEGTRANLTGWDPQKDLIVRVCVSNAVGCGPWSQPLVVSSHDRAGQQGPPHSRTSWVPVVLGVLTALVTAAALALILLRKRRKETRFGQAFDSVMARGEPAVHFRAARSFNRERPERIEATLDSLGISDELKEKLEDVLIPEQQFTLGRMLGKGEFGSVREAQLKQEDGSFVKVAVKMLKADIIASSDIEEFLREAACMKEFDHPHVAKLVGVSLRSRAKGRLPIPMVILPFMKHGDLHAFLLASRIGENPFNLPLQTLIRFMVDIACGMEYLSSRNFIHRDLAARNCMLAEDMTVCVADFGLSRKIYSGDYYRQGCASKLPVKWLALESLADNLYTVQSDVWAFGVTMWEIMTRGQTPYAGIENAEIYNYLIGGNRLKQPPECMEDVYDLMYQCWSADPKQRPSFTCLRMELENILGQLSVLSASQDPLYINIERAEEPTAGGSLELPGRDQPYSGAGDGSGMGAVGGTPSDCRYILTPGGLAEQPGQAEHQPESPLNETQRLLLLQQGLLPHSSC
Chain of broad panel of kinases (Homo sapiens, UniProt Q16620) (Q16620 32-822 limits assumed): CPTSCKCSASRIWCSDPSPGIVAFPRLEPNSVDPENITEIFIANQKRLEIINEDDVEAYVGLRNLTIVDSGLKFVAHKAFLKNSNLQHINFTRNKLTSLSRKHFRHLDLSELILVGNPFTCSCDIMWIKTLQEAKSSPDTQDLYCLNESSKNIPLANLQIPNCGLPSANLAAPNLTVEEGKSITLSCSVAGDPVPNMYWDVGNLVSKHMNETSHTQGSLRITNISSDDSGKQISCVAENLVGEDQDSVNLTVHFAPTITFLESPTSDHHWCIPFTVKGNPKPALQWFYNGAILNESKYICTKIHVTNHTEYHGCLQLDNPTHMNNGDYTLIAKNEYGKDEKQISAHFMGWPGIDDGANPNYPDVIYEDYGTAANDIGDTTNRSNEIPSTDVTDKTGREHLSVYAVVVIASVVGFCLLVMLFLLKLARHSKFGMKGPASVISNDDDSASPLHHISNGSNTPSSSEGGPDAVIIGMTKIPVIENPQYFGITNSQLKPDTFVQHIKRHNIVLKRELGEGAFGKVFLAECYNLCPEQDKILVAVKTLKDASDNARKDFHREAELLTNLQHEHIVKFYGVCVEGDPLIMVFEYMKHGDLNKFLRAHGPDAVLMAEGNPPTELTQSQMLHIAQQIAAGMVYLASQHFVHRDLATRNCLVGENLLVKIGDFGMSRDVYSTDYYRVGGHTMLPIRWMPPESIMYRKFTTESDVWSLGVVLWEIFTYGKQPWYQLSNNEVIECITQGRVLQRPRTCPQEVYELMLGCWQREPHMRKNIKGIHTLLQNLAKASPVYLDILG
Chain of broad panel of kinases (Homo sapiens, UniProt Q9Y243) (Q9Y243 2-479 limits assumed): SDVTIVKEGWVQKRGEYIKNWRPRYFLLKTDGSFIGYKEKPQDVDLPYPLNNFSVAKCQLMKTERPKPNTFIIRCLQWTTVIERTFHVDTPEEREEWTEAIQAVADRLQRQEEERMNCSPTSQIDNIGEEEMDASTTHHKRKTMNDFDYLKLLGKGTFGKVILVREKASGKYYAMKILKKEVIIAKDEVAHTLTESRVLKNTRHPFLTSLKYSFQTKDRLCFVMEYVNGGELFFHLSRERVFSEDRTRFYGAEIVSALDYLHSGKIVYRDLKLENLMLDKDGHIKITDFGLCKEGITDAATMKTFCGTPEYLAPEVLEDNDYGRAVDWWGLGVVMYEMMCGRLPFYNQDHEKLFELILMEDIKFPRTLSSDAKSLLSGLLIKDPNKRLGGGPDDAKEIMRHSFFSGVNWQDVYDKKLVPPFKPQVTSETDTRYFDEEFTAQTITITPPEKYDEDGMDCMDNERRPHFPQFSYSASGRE

| SMILES | percent of control binding remaining (lower = stronger binding) (broad panel of kinases [1]) | percent of control binding remaining (lower = stronger binding) (broad panel of kinases [2]) | percent of control binding remaining (lower = stronger binding) (broad panel of kinases [4]) | percent of control binding remaining (lower = stronger binding) (broad panel of kinases [5]) | percent of control binding remaining (lower = stronger binding) (broad panel of kinases [7]; RSK1(Kin.Dom.1-N-terminal)) | percent of control binding remaining (lower = stronger binding) (broad panel of kinases [7]; RSK1(Kin.Dom.2-C-terminal)) | percent of control binding remaining (lower = stronger binding) (broad panel of kinases [8]) | percent of control binding remaining (lower = stronger binding) (broad panel of kinases [9]) | percent of control binding remaining (lower = stronger binding) (broad panel of kinases [10]) | percent of control binding remaining (lower = stronger binding) (broad panel of kinases [11]) | percent of control binding remaining (lower = stronger binding) (broad panel of kinases [13]) | percent of control binding remaining (lower = stronger binding) (broad panel of kinases [14]) | percent of control binding remaining (lower = stronger binding) (broad panel of kinases [15]) | percent of control binding remaining (lower = stronger binding) (broad panel of kinases [16]) | percent of control binding remaining (lower = stronger binding) (broad panel of kinases [17]) | percent of control binding remaining (lower = stronger binding) (broad panel of kinases [18]) | % change compared to control (broad panel of kinases [19]) | percent of control binding remaining (lower = stronger binding) (broad panel of kinases [20]) | percent of control binding remaining (lower = stronger binding) (broad panel of kinases [21]) | percent of control binding remaining (lower = stronger binding) (broad panel of kinases [22]) | further results |
| --- | --- | --- | --- | --- | --- | --- | --- | --- | --- | --- | --- | --- | --- | --- | --- | --- | --- | --- | --- | --- | --- |
| C=CC(=O)N1CC[C@H](Nc2nc(CN3CCOCC3)cc(Nc3ncc(C(=O)Nc4c(C)cccc4C)s3)n2)C1 [Example I-2] | 41% | 100% | 97% | 100% | 73% | 100% | 88% | 97% | 100% | 93% | 94% | 100% | 95% | 90% | 76% | 76% | 100% | 59% | 0% | 0% | percent of control binding remaining (lower = stronger binding) (broad panel of kinases [3]; ABL1(H396P)-nonphosphorylated): 0%; percent of control binding remaining (lower = stronger binding) (broad panel of kinases [3]; ABL1(H396P)-phosphorylated): 0%; percent of control binding remaining (lower = stronger binding) (broad panel of kinases [6]; ABL1(T315I)-nonphosphorylated): 95%; percent of control binding remaining (lower = stronger binding) (broad panel of kinases [6]; ABL1(T315I)-phosphorylated): 69%; percent of control binding remaining (lower = stronger binding) (broad panel of kinases [12]; ABL1-nonphosphorylated): 0.05%; percent of control binding remaining (lower = stronger binding) (broad panel of kinases [12]; ABL1-phosphorylated): 0%; percent of control binding remaining (lower = stronger binding) (broad panel of kinases [23]): 100%; percent of control binding remaining (lower = stronger binding) (broad panel of kinases [24]): 94%; percent of control binding remaining (lower = stronger binding) (broad panel of kinases [25]): 96%; percent of control binding remaining (lower = stronger binding) (broad panel of kinases [26]): 0.1%; percent of control binding remaining (lower = stronger binding) (broad panel of kinases [27]): 100%; percent of control binding remaining (lower = stronger binding) (broad panel of kinases [28]): 95%; percent of control binding remaining (lower = stronger binding) (broad panel of kinases [29]): 7.6%; percent of control binding remaining (lower = stronger binding) (broad panel of kinases [30]): 95%; percent of control binding remaining (lower = stronger binding) (broad panel of kinases [31]): 100%; percent of control binding remaining (lower = stronger binding) (broad panel of kinases [32]): 100%; percent of control binding remaining (lower = stronger binding) (broad panel of kinases [33]): 100%; percent of control binding remaining (lower = stronger binding) (broad panel of kinases [34]): 87%; percent of control binding remaining (lower = stronger binding) (broad panel of kinases [35]): 67%; percent of control binding remaining (lower = stronger binding) (broad panel of kinases [36]): 11% |
| C=CC(=O)N1CC[C@H](Nc2nccc(Nc3ncc(C(=O)Nc4c(C)cccc4C)s3)n2)C1 [Example I-3] | 41% | 97% | 100% | 100% | 91% | 100% | 85% | 100% | 100% | 84% | 92% | 100% | 100% | 81% | 96% | 89% | 95% | 47% | 0.1% | 0% | % change compared to control (broad panel of kinases [3]; ABL1(H396P)-nonphosphorylated): 0.05%; % change compared to control (broad panel of kinases [3]; ABL1(H396P)-phosphorylated): 0%; % change compared to control (broad panel of kinases [6]; ABL1(T315I)-nonphosphorylated): 100%; % change compared to control (broad panel of kinases [6]; ABL1(T315I)-phosphorylated): 70%; % change compared to control (broad panel of kinases [12]; ABL1-nonphosphorylated): 0.1%; % change compared to control (broad panel of kinases [12]; ABL1-phosphorylated): 0%; percent of control binding remaining (lower = stronger binding) (broad panel of kinases [23]): 93%; percent of control binding remaining (lower = stronger binding) (broad panel of kinases [24]): 100%; percent of control binding remaining (lower = stronger binding) (broad panel of kinases [25]): 100%; % change compared to control (broad panel of kinases [26]): 0.1%; percent of control binding remaining (lower = stronger binding) (broad panel of kinases [27]): 100%; percent of control binding remaining (lower = stronger binding) (broad panel of kinases [28]): 75%; percent of control binding remaining (lower = stronger binding) (broad panel of kinases [29]): 12%; percent of control binding remaining (lower = stronger binding) (broad panel of kinases [30]): 92%; percent of control binding remaining (lower = stronger binding) (broad panel of kinases [31]): 97%; percent of control binding remaining (lower = stronger binding) (broad panel of kinases [32]): 97%; percent of control binding remaining (lower = stronger binding) (broad panel of kinases [33]): 95%; percent of control binding remaining (lower = stronger binding) (broad panel of kinases [34]): 84%; percent of control binding remaining (lower = stronger binding) (broad panel of kinases [35]): 100%; percent of control binding remaining (lower = stronger binding) (broad panel of kinases [36]): 11% |
